In experiment [1] the target is ABL (Homo sapiens (Human), UniProt P00519). The experiment in a line: Biochemical kinase analysis, ABL. As to conditions: kinase inhibition assay. The procedure:
(§1) Reagents and materials: ABL (ThermoFisher, Cat. No. PV3585), ABL^T315I(Thermo Fisher, Cat. No. PR7429B), Ret (Carna, Cat. No. 08-159-10 ug), RET^V804M, Active (Signalchem, Cat. No. R02-12GG), ATP (Sigma, Cat. No. A7699-1G), DMSO (Sigma, Cat. No. D2650), 96-well plate (Corning, Cat. No. 3365), 384-well plate (Greiner, Cat. No. 784076), buffer solution (Thermo Fisher, Cat. No. PR4876B).
(§2) Compound formulation: The test compounds were dissolved in DMSO to prepare a 20 mM stock solution. Before use, the compounds were diluted in DMSO to 0.1 mM, and diluted into 11 concentrations with a 3-fold gradient. When addition, dilutions of 4-fold final concentration were then made with buffer solution.
(§3) Kinase assay method: After preparing the buffer, the enzyme was mixed with pre-formulated and diluted compounds of different concentrations in duplicate for each concentration, and placed at room temperature for 30 minutes. The corresponding substrate and ATP were added thereto, and reacted at room temperature for 60 minutes (both a negative and a positive control were set). After the reaction, antibody was added for detection, Evnvision detection was carried out after 60 minutes incubation at room temperature, and data was collected. Data analysis and fitting were made according to XLfit5 software.

Experiment [2] deals with ABL^T315I (Homo sapiens (Human), UniProt P00519, T315I). The experiment in a line: Biochemical kinase analysis, ABL T315I. As to conditions: kinase inhibition assay. The procedure:
as §1, §2, §3

The target of experiment [3] is Ret (Homo sapiens (Human), UniProt P07949). The experiment in a line: Biochemical kinase analysis, Ret. As to conditions: kinase inhibition assay. The procedure: as §1, §2, §3
Ret, sequence (P07949 29-1114): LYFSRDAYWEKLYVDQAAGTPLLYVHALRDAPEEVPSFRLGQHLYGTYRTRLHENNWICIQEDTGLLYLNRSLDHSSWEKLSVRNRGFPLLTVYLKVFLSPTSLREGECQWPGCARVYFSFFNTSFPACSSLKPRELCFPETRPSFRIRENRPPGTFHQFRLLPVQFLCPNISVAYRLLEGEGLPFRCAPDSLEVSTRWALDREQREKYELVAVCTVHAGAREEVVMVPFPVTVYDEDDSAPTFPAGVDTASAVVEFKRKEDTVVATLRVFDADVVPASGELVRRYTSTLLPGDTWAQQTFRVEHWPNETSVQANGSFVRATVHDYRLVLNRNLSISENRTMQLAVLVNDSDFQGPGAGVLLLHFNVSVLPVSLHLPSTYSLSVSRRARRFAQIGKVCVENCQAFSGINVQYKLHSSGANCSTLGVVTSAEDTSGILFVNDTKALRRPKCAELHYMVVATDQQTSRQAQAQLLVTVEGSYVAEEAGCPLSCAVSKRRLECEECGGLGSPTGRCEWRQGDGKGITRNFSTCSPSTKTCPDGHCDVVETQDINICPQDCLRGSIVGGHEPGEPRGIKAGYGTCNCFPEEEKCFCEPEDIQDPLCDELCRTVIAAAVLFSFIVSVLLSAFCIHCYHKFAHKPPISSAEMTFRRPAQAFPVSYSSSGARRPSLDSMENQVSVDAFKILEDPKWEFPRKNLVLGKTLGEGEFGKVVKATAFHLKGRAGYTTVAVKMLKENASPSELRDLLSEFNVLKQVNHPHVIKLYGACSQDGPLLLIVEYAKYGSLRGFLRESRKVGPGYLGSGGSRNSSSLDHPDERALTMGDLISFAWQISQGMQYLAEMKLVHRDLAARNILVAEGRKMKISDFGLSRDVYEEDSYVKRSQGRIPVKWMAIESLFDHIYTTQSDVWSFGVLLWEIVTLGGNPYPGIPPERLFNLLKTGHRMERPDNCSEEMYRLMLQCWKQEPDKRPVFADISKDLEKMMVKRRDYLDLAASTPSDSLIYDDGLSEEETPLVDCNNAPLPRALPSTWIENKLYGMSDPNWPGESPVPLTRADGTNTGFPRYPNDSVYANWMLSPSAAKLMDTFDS
The target in experiment [4] is RET^V804M (Homo sapiens (Human), UniProt P07949, V804M). The experiment in a line: Biochemical kinase analysis, RET V804M. As to conditions: kinase inhibition assay. The procedure:
as §1, §2, §3

The test system of experiment [5] is Ba/F3 parental cells. The experiment in a line: Cell proliferation analysis, Ba/F3 parental. Type of experiment: cell-based. As to conditions: Mus musculus, BaF3, 72 h; 3 days, CellTiter-Glo, 8 ng/ml IL-3. The procedure: (§4) The inhibitory effect of the example compounds on Ba/F3 parental, Ba/F3 Bcr-Abl^T315I, K562, Ba/F3 KIF5B-RET, BaF3 FLT3-ITD cell activity was determined.
(§5) Materials and reagents: RPMI-1640 medium (GIBCO, Catalog No. A10491-01), fetal bovine serum (GIBCO, Catalog No. 10099141), antibiotics (Penicillin-Streptomycin), IL-3(PeproTech), promycin; cell lines: Ba/F3 parental, Ba/F3 Bcr-Abl^T315I, Ba/F3 KIF5B-RET, BaF3 FLT3-ITD, (purchased from American type culture collection, ATCC), K562 live cell detection kit CellTiter-Glo4(Promega, Catalog No. G7572), 96-well black wall transparent flat bottom cell culture plate (Corning, Catalog No. 3340).
(§6) Test method: 1. Preparation of cell plate: Ba/F3 parental, Ba/F3 Bcr-Abl^T315I K563, Ba/F3 KIFSB-RET, BaF3 FLT3-ITD cells were respectively seeded in 96-well plates, and 8 ng/ml IL-3 was added to the Ba/F3 cells, and the cell plates were placed in a carbon dioxide incubator and cultured overnight. 2. The test compounds were dissolved in DMSO, 9 compound concentrations were made with a 3.16-fold gradient dilution in triplicate. 3. Treatment of the cells with compounds: The compounds were transferred to the cell plate with a starting concentration of 10 μM. The cell plate was placed in a carbon dioxide incubator for 3 days. 4. Detection: CellTiter-Glo agent was added to the cell plate, and incubated at room temperature for 30 minutes to stabilize the luminous signal. PerkinElmer Envision multi-label analyzer was used for reading, wherein A represents IC50≤50 nM, B represents IC50 is 50-100 nM, C represents IC50 is 100-500 nM, D represents IC50 is 500-1000 nM, […].

Experiment [6] concerns K562 cells. The experiment in a line: Cell proliferation analysis, K562. It counts as cell-based. As to conditions: Homo sapiens, K562, 72 h; 3 days, CellTiter-Glo. The protocol:
as §4, §5, §6

Experiment [7] has as its system Ba/F3 BCR-ABL cells. Put plainly: Cell proliferation analysis, Ba/F3 BCR-ABL. It counts as cell-based. As to conditions: Mus musculus, BaF3, 72 h; 3 days, CellTiter-Glo. The protocol:
[Worded in the source for another variant; this variant is reported under the same test.] as §4, §5, §6

In experiment [8] the test system is Ba/F3 Bcr-Abl^T315I cells. The experiment in a line: Cell proliferation analysis, Ba/F3 Bcr-Abl T315I. Type of experiment: cell-based. As to conditions: Mus musculus, BaF3, 72 h; 3 days, CellTiter-Glo; read-out: IC50 (nM) Ba/F3 BCR-ABL^T315. The procedure: as §4, §5, §6
Background: ATP-based viability assays read luminescence as a measure of living cells.

The subject of experiment [9] is Ba/F3 KIF5B-RET cells. The experiment in a line: Cell proliferation analysis, Ba/F3 KIF5B-RET. As to conditions: Mus musculus, BaF3, 72 h; 3 days, CellTiter-Glo. Type of experiment: cell-based. The procedure:
as §4, §5, §6

Experiment [10] deals with BaF3 FLT3-ITD cells. The experiment in a line: Cell proliferation analysis, BaF3 FLT3-ITD. Type of experiment: cell-based. As to conditions: Ba/F3 FLT3-ITD, 72 h; 3 days, CellTiter-Glo. The protocol: as §4, §5, §6

RET^V804M, sequence (P07949 29-1114 V804M): as the sequence (P07949 29-1114) above, with V776M counted along it

For the molecule `Cc1ccc(NC(=O)c2ccnc(C(F)(F)F)c2)cc1C#Cc1cnc2c(Nc3cnn(C)c3)nccn12` [Example 3, N-(4-methyl-3-((8-((1-methyl-1H-pyrazol-4-yl)amino)imidazo[1,2-a]pyrazin-3-yl)ethynyl)phenyl)-2-(trifluoromethyl)isonicotinamide], the IC50 in [1] was found to be 1.89 nM; in [2], 27.5 nM; in experiment [3], 0.25 nM; in experiment [4] it was 23.1 nM; in experiment [5], 1340 nM; in experiment [6], 0.16 nM. The IC50 in experiment [7] worked out at 4.75 nM; in experiment [8], 101 nM; in experiment [9], 26.4 nM; in [10], 67.7 nM.

As to `Cc1ccc(C(=O)Nc2cccc(C(F)(F)F)c2)cc1C#Cc1cnc2c(Nc3cnn(C)c3)ccnn12` [Example 14, 4-methyl-3-((8-((1-methyl-1H-pyrazol-4-yl)amino)imidazo[1,2-b]pyridazin-3-yl)ethynyl)-N-(3-(trifluoromethyl)phenyl)benzamide], the IC50 amounted to 4.91 nM in experiment [1]; 12.6 nM in experiment [2]; 0.49 nM in experiment [3]; 9.92 nM in experiment [4]; 1550 nM in experiment [5]; 0.97 nM in experiment [6]. The IC50 in experiment [7] was 9.02 nM; in experiment [8] it was 24.9 nM; in experiment [9], 15.8 nM; in experiment [10], 23 nM.

Consider `Cc1ccc(C(=O)Nc2ccc(CN3CCN(C)CC3)c(C(F)(F)F)c2)cc1C#Cc1cnc2c(Nc3cnn(C)c3)ccnn12` [Example 15, 4-methyl-3-((8-((1-methyl-1H-pyrazol-4-yl)amino)imidazo[1,2-b]pyridazin-3-yl)ethynyl)-N-(4-((4-methylpiperazin-1-yl)methyl)-3-(trifluoromethyl)phenyl)benzamide], for which the IC50 in [1] stood at 3.24 nM; in [2] it was 4.28 nM; in [3], 0.37 nM; in [4], 1.42 nM; in [5], 280 nM; in experiment [6], 0.76 nM. The IC50 in experiment [7] amounted to 12.8 nM; in experiment [8] it was 25.2 nM; in experiment [9], 4.56 nM; in experiment [10], 1.14 nM.
